IC50, Papp A→B and Papp B→A data for eight compounds are collected here from ChEMBL document CHEMBL1144584, “Identification of novel short chain 4-substituted indoles as potent alphavbeta3 antagonist using structure-based drug design” (Eur J Med Chem, 2007).

SMILES strings stand for the structures. Where only a bound is given, the exact number is not on record here.

One data set deals with Integrin alpha-V/beta-5 (Homo sapiens, UniProt P06756+P18084). Briefly: Binding affinity to Integrin alpha-v-beta-5 receptor by ELISA assay. It is filed as protein-complex assay.
Integrin alpha-V/beta-5, sequence (P06756 31-889 limits assumed): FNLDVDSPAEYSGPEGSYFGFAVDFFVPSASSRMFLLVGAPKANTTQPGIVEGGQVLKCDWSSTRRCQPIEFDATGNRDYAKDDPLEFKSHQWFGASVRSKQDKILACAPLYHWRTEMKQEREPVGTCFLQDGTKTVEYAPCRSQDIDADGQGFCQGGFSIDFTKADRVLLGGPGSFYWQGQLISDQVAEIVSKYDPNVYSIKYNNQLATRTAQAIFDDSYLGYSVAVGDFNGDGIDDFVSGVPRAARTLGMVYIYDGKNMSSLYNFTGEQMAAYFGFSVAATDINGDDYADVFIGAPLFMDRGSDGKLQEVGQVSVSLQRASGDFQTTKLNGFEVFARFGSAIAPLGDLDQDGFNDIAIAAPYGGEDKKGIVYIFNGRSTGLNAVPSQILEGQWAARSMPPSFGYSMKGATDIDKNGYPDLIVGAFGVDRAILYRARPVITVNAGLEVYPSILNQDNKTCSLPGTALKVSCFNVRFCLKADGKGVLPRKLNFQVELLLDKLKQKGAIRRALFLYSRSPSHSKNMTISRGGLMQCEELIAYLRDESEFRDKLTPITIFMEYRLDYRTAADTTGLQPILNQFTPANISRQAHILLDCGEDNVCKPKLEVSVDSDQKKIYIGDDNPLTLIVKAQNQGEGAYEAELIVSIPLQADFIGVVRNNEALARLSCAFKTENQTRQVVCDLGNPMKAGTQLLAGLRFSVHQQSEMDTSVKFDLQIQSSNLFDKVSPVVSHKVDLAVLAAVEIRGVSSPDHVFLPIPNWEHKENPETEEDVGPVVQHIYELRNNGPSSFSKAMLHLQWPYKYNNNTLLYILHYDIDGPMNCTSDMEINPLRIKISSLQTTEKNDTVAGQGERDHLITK
Integrin alpha-V/beta-5, sequence (P06756 891-1048 limits assumed): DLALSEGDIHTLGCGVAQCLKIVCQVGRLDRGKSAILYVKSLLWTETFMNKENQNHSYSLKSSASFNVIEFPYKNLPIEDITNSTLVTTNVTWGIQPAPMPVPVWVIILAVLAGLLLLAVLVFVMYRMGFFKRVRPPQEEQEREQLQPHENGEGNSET
Integrin alpha-V/beta-5, sequence (P18084 24-799 limits assumed): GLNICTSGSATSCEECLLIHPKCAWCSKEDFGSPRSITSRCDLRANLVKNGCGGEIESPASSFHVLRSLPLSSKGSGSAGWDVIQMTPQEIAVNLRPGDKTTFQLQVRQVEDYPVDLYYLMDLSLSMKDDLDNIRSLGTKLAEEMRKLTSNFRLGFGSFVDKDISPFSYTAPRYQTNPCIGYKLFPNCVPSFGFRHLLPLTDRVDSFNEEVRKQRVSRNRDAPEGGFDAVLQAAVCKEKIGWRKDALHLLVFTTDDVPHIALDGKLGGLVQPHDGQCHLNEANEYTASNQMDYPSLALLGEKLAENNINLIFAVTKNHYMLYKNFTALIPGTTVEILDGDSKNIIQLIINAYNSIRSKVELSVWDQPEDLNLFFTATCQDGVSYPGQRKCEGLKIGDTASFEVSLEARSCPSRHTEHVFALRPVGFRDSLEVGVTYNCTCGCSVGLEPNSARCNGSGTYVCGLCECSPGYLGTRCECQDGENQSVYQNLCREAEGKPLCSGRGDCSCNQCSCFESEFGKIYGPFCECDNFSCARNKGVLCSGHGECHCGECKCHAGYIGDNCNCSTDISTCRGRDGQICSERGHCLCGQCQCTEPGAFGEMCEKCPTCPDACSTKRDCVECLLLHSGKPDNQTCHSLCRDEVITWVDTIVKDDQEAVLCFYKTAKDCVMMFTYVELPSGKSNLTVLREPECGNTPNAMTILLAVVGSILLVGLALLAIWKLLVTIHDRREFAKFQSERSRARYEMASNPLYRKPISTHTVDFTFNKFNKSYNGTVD
Data set [1] in a line: Binding affinity to Integrin alpha-2b-beta-3a receptor by ELISA assay. On the set-up: species or system Homo sapiens.
Data set [2] can be described thus: Binding affinity to Integrin […] receptor by ELISA assay. Further details: species or system Homo sapiens.
The target in another data set is Integrin alpha-V/beta-3 (Homo sapiens, UniProt P05106+P06756). In words: Binding affinity to Integrin alpha-v-beta-3 receptor by ELISA assay. It is filed as protein-complex assay.
Integrin alpha-V/beta-3, sequence (P05106 27-788 limits assumed): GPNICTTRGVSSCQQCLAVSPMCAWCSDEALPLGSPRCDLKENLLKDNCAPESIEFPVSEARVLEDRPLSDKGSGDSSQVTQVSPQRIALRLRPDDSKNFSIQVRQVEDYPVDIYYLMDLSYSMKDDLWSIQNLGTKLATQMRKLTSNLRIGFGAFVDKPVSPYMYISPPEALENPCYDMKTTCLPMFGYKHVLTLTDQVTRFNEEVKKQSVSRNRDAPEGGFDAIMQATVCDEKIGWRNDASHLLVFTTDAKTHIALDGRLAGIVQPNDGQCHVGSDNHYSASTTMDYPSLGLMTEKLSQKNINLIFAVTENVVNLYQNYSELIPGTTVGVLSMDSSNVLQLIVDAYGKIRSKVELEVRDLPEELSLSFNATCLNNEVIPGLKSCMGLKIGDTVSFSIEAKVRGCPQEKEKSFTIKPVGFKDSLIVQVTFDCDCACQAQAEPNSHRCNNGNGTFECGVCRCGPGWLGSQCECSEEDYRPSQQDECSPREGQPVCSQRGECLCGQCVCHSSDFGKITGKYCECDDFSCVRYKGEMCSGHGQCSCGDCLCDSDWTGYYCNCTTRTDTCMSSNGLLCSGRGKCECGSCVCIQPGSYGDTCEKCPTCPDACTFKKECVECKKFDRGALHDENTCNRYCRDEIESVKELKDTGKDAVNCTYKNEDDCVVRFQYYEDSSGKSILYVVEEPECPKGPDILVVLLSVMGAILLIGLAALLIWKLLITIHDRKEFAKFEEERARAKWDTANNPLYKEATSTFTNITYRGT
Integrin alpha-V/beta-3, sequence (P06756 31-889 limits assumed): as the sequence (P06756 31-889 limits assumed) above
Integrin alpha-V/beta-3, sequence (P06756 891-1048 limits assumed): as the sequence (P06756 891-1048 limits assumed) above
Data set [3] is described as follows: Permeability from apical to basolateral side of human Caco-2 cell membrane. The class given is ADME, cell-based.
A short description of data set [4]: Permeability from basolateral to apical side of human Caco-2 cell membrane. The class given is ADME, cell-based.

For the compound `O=C(O)CC(c1ccccc1)n1ccc2c(CCc3ccc4c(n3)NCCC4)cccc21` (centres undefined), the 50% inhibitory concentration (IC50) at Integrin alpha-V/beta-5 is 1.1 nM; in data set [1], greater than 1000 nM; in data set [2] it was 107 nM; on Integrin alpha-V/beta-3, 0.96 nM.

`O=C(O)CC(c1ccccc1)n1ccc2cc(OCCc3ccc4c(n3)NCCC4)ccc21` (centres undefined): the IC50 is 0.68 nM on Integrin alpha-V/beta-5, greater than 1000 nM in data set [1] and 41 nM in data set [2].

With `O=C(O)CC(c1ccc2c(c1)OCO2)n1ccc2cc(OCCc3ccc4c(n3)NCCC4)ccc21` (centres undefined), the results for the IC50 (on Integrin alpha-V/beta-5; in data set [1]; in data set [2]) were 0.5 nM, greater than 1000 nM and 24 nM, respectively.

Take `O=C(O)CC(c1cccnc1)n1ccc2c(NCc3ccc4c(n3)NCCC4)cccc21` (centres undefined): the IC50 at Integrin alpha-V/beta-5 was 11 nM; in data set [1] it was greater than 1000 nM; in data set [2] it was 9400 nM; on Integrin alpha-V/beta-3 it was 4.4 nM.

In the case of `CC(C)[C@H]1C(=O)N[C@@H](CCCNC(=N)N)C(=O)NCC(=O)N[C@@H](CC(=O)O)C(=O)N[C@H](Cc2ccccc2)C(=O)N1C` [CILENGITIDE], the values for the IC50 in data set [1] and in data set [2] were greater than 1000 nM and 14 nM, respectively.

On to `O=C(O)CC(c1cccnc1)n1ccc2c(CCc3ccc4c(n3)NCCC4)cccc21` (centres undefined), for which the IC50 at Integrin alpha-V/beta-5 was 0.96 nM; in data set [1], greater than 1000 nM; in data set [2] it was 250 nM; on Integrin alpha-V/beta-3, 0.5 nM. The compound further registered a Papp A→B in data set [3] of 2.2 ×10⁻⁶ cm/s. In data set [4], this compound came in with a Papp B→A of 2.5 ×10⁻⁶ cm/s.

With `O=C(O)CC(c1cccnc1)n1ccc2cc(OCCc3ccc4c(n3)NCCC4)ccc21` (centres undefined), the IC50 was 0.21 nM on Integrin alpha-V/beta-5, greater than 1000 nM in data set [1] and 15 nM in data set [2].

Turning to `O=C(O)CC(c1ccccc1)n1ccc2cc(CCCc3ccc4c(n3)NCCC4)ccc21` (centres undefined), the IC50 was 15 nM at Integrin alpha-V/beta-5, greater than 1000 nM in data set [1], 1100 nM in data set [2] and 14 nM on Integrin alpha-V/beta-3.
